Reference: patent US20210094954A1, “PREPARATION METHODS AND APPLICATIONS OF 3,5-DISUBSTITUTED METHYLPYRAZOLO[1,5-A]PYRIMIDINE-7-HYDROXYLIC SALTS” (priority 2019, published 2021)
Where two headings read alike, the source gives them in different places.

Experiments:
Assay type in all cases: cell-based
[1] = test system: Staphylococcus aureus 703(MRSA); experiment: microbe, parasite or virus in culture; details: for MIC: Staphylococcus aureus, MRSA, 24 h, read-out: MIC values of in vitro antibacterial test results
[2] = test system: Streptococcus pneumoniae M2; experiment: microbe, parasite or virus in culture; details: 37° C., 24 hours; for MIC: Streptococcus pneumoniae, M2, read-out: MIC values of in vitro antibacterial test results
[3] = test system: Bacillus cereus 2; experiment: microbe, parasite or virus in culture; details: 37° C., 24 hours; for MIC: Bacillus cereus, 2, read-out: MIC values of in vitro antibacterial test results
[4] = test system: Streptococcus pneumoniae 6303 (PRSP); experiment: microbe, parasite or virus in culture; details: for MIC: Streptococcus pneumoniae, PRSP, 24 h, read-out: MIC values of in vitro antibacterial test results
[5] = test system: Clostridium perfringens; experiment: microbe, parasite or virus in culture; details: for MIC: Clostridium perfringens, 24 h, read-out: MIC values of in vitro antibacterial test results
[6] = test system: Staphylococcus aureus 43300(MRSA); experiment: microbe, parasite or virus in culture; details: for MIC: Staphylococcus aureus, MRSA, 24 h, read-out: MIC values of in vitro antibacterial test results
[7] = test system: Bacillus subtilis 168; experiment: microbe, parasite or virus in culture; details: 37° C., 24 hours; for MIC: Bacillus subtilis, 168, read-out: MIC values of in vitro antibacterial test results
[8] = test system: Bacillus anthracis Bacillus 1; experiment: microbe, parasite or virus in culture; details: for MIC: Bacillus anthracis, 24 h, read-out: MIC values of in vitro antibacterial test results
[9] = test system: Streptococcus pneumoniae 10351; experiment: microbe, parasite or virus in culture; details: 37° C., 24 hours; for MIC: Streptococcus pneumoniae, 10351, read-out: MIC values of in vitro antibacterial test results
[10] = test system: F2518(VRE), Staphylococcus aureus resistant strain 43300(MRSA), 703 (MRSA), pneumococcal resistance bacteria 6303(PRSP); experiment: microbe, parasite or virus in culture; details: read-out: MIC values (μM)
[11] = test system: Enterococcus faecalis F2518(VRE); experiment: microbe, parasite or virus in culture; details: for MIC: Enterococcus faecalis, VRE, 24 h, read-out: MIC values of in vitro antibacterial test results
[12] = test system: Streptococcus agalactia B group; experiment: microbe, parasite or virus in culture; details: 37° C., 24 hours; for MIC: Streptococcus, read-out: MIC values of in vitro antibacterial test results
[13] = test system: Staphylococcus aureus 29231; experiment: microbe, parasite or virus in culture; details: 37° C., 24 hours; for MIC: Staphylococcus aureus, 29231, read-out: MIC values of in vitro antibacterial test results
[14] = test system: Diphtheria bacilli; experiment: organism not typed; details: 37° C., 24 hours; for MIC: read-out: MIC values of in vitro antibacterial test results
[15] = test system: Peel fungus; experiment: organism not typed; details: 37° C., 24 hours; for MIC: read-out: MIC values of in vitro antibacterial test results
[16] = test system: Oral Candida; experiment: microbe, parasite or virus in culture; details: for MIC: Candida
[17] = test system: Enterococcus faecalis 29212; experiment: microbe, parasite or virus in culture; details: 37° C., 24 hours; for MIC: Enterococcus faecalis, 29212, read-out: MIC values of in vitro antibacterial test results
[18] = 37° C., 24 hours, read-out: MIC values of in vitro antibacterial test results

## COc1ccc(-c2cc([O-])n3nc(C)c(-c4ccc(F)cc4F)c3n2)cc1.[Na+] [Compound 4, Sodium 3-(2,4-difluorophenyl)-5-(4-methoxyphenyl)-2-methylpyrazolo[1,5-α]pyrimidin-7-olate]
[1]
  MIC: < 150 µg/mL
[2]
  MIC: < 150 µg/mL
[3]
  MIC: < 150 µg/mL
[4]
  MIC: > 150 µg/mL
[5]
  MIC: > 150 µg/mL
[6]
  MIC: < 100 µg/mL
[7]
  MIC: > 150 µg/mL
[8]
  MIC: > 150 µg/mL
[9]
  MIC: > 150 µg/mL
[10]
  MIC: < 100 µg/mL
[11]
  MIC: < 150 µg/mL
[12]
  MIC: > 150 µg/mL
[13]
  MIC: > 150 µg/mL
[14]
  MIC: > 150 µg/mL
[15]
  MIC: < 150 µg/mL
[16]; [18]
  MIC: < 150 µg/mL
[17]
  MIC: < 150 µg/mL

## Cc1nn2c([O-])cc(-c3ccc([O-])nc3)nc2c1-c1ccc(F)cc1F.[Na+].[Na+] [Compound 19, Disodium 3-(2,4-difluorophenyl)-2-methyl-5-(6-hydroxypyridin-3-yl)pyrazolo[1,5-α]pyrimidin-7-olate]
[1]
  MIC: < 150 µg/mL
[2]
  MIC: < 100 µg/mL
[3]
  MIC: < 100 µg/mL
[4]
  MIC: > 150 µg/mL
[5]
  MIC: > 150 µg/mL
[6]
  MIC: < 100 µg/mL
[7]
  MIC: > 150 µg/mL
[8]
  MIC: > 150 µg/mL
[9]
  MIC: > 150 µg/mL
[10]
  MIC: < 100 µg/mL
[11]
  MIC: < 150 µg/mL
[12]
  MIC: > 150 µg/mL
[13]
  MIC: > 150 µg/mL
[14]
  MIC: > 150 µg/mL
[15]
  MIC: < 150 µg/mL
[16]; [18]
  MIC: > 150 µg/mL
[17]
  MIC: < 150 µg/mL

## COc1ccc(-c2cc([O-])n3nc(C)c(-c4ccc(F)cc4F)c3n2)cn1.[Na+] [Compound 17, sodium 3-(2,4-difluorophenyl)-5-(6-methoxypyridin-3-yl)-2-methylpyrazolo[1,5-α]pyrimidin-7-olate]
[1]
  MIC: < 150 µg/mL
[2]
  MIC: < 100 µg/mL
[3]
  MIC: < 150 µg/mL
[4]
  MIC: > 150 µg/mL
[5]
  MIC: > 150 µg/mL
[6]
  MIC: < 100 µg/mL
[7]
  MIC: > 150 µg/mL
[8]
  MIC: > 150 µg/mL
[9]
  MIC: > 150 µg/mL
[10]
  MIC: < 100 µg/mL
[11]
  MIC: < 150 µg/mL
[12]
  MIC: > 150 µg/mL
[13]
  MIC: > 150 µg/mL
[14]
  MIC: > 150 µg/mL
[15]
  MIC: < 150 µg/mL
[16]; read-out: MIC values (μM)
  MIC: < 100 µg/mL
[16]; [18]
  MIC: < 100 µg/mL
[17]
  MIC: < 150 µg/mL

## CC(=O)Oc1ccc(-c2cc([O-])n3nc(C)c(-c4ccc(F)cc4F)c3n2)cn1.[Na+] [Compound 33, Sodium 5-(6-acetoxypyridin-3-yl)-3-(2,4-difluorophenyl)-2-methylpyrazolo[1,5-α]pyrimidin-7-olate]
[1]
  MIC: < 150 µg/mL
[2]
  MIC: < 100 µg/mL
[3]
  MIC: < 100 µg/mL
[4]
  MIC: > 150 µg/mL
[5]
  MIC: > 150 µg/mL
[6]
  MIC: < 100 µg/mL
[7]
  MIC: > 150 µg/mL
[8]
  MIC: > 150 µg/mL
[9]
  MIC: > 150 µg/mL
[10]
  MIC: < 100 µg/mL
[11]
  MIC: < 150 µg/mL
[12]
  MIC: > 150 µg/mL
[13]
  MIC: > 150 µg/mL
[14]
  MIC: > 150 µg/mL
[15]
  MIC: < 150 µg/mL
[16]; read-out: MIC values (μM)
  MIC: < 100 µg/mL
[16]; [18]
  MIC: < 150 µg/mL
[17]
  MIC: < 100 µg/mL

## Cc1nn2c([O-])cc(-c3ccc(S(=O)[O-])cc3)nc2c1-c1ccc(F)cc1F.[Na+].[Na+] [Compound 8]
[1]
  MIC: < 150 µg/mL
[2]
  MIC: < 150 µg/mL
[3]
  MIC: < 150 µg/mL
[4]
  MIC: > 150 µg/mL
[5]
  MIC: > 150 µg/mL
[6]
  MIC: < 150 µg/mL
[7]
  MIC: > 150 µg/mL
[8]
  MIC: > 150 µg/mL
[9]
  MIC: > 150 µg/mL
[11]
  MIC: < 150 µg/mL
[12]
  MIC: > 150 µg/mL
[13]
  MIC: > 150 µg/mL
[14]
  MIC: > 150 µg/mL
[15]
  MIC: < 150 µg/mL
[16]; [18]
  MIC: < 150 µg/mL
[17]
  MIC: < 150 µg/mL

## Cc1nn2c([O-])cc(-c3ccc([S](=O)(=O)[Na])nc3)nc2c1-c1ccc(F)cc1F.[Na+] [Compound 28, Disodium 5-(3-(2,4-difluorophenyl)-2-methyl-7-hydroxypyrazolo[1,5-α]pyrimidin-5-yl)pyridine-2-sulfinate]
[1]; 37° C., 24 hours
  MIC values of in vitro antibacterial test results: + (key: − represents the MIC value (μM) > 150 μg/mL; + represents the MIC value (μM) < 150 μg/mL; ++ represents the MIC value (μM) < 100 μg/mL; +++ represents the MIC value (μM) < 50 μg/mL)
[2]
  MIC values of in vitro antibacterial test results: ++ (key: − represents the MIC value (μM) > 150 μg/mL; + represents the MIC value (μM) < 150 μg/mL; ++ represents the MIC value (μM) < 100 μg/mL; +++ represents the MIC value (μM) < 50 μg/mL)
[3]
  MIC values of in vitro antibacterial test results: ++ (key: − represents the MIC value (μM) > 150 μg/mL; + represents the MIC value (μM) < 150 μg/mL; ++ represents the MIC value (μM) < 100 μg/mL; +++ represents the MIC value (μM) < 50 μg/mL)
[4]; 37° C., 24 hours
  MIC values of in vitro antibacterial test results: − (key: − represents the MIC value (μM) > 150 μg/mL; + represents the MIC value (μM) < 150 μg/mL; ++ represents the MIC value (μM) < 100 μg/mL; +++ represents the MIC value (μM) < 50 μg/mL)
[5]; 37° C., 24 hours
  MIC values of in vitro antibacterial test results: − (key: − represents the MIC value (μM) > 150 μg/mL; + represents the MIC value (μM) < 150 μg/mL; ++ represents the MIC value (μM) < 100 μg/mL; +++ represents the MIC value (μM) < 50 μg/mL)
[6]; 37° C., 24 hours
  MIC values of in vitro antibacterial test results: + (key: − represents the MIC value (μM) > 150 μg/mL; + represents the MIC value (μM) < 150 μg/mL; ++ represents the MIC value (μM) < 100 μg/mL; +++ represents the MIC value (μM) < 50 μg/mL)
[7]
  MIC values of in vitro antibacterial test results: − (key: − represents the MIC value (μM) > 150 μg/mL; + represents the MIC value (μM) < 150 μg/mL; ++ represents the MIC value (μM) < 100 μg/mL; +++ represents the MIC value (μM) < 50 μg/mL)
[8]; 37° C., 24 hours
  MIC values of in vitro antibacterial test results: − (key: − represents the MIC value (μM) > 150 μg/mL; + represents the MIC value (μM) < 150 μg/mL; ++ represents the MIC value (μM) < 100 μg/mL; +++ represents the MIC value (μM) < 50 μg/mL)
[9]
  MIC values of in vitro antibacterial test results: − (key: − represents the MIC value (μM) > 150 μg/mL; + represents the MIC value (μM) < 150 μg/mL; ++ represents the MIC value (μM) < 100 μg/mL; +++ represents the MIC value (μM) < 50 μg/mL)
[11]; 37° C., 24 hours
  MIC values of in vitro antibacterial test results: + (key: − represents the MIC value (μM) > 150 μg/mL; + represents the MIC value (μM) < 150 μg/mL; ++ represents the MIC value (μM) < 100 μg/mL; +++ represents the MIC value (μM) < 50 μg/mL)
[12]
  MIC values of in vitro antibacterial test results: − (key: − represents the MIC value (μM) > 150 μg/mL; + represents the MIC value (μM) < 150 μg/mL; ++ represents the MIC value (μM) < 100 μg/mL; +++ represents the MIC value (μM) < 50 μg/mL)
[13]
  MIC values of in vitro antibacterial test results: − (key: − represents the MIC value (μM) > 150 μg/mL; + represents the MIC value (μM) < 150 μg/mL; ++ represents the MIC value (μM) < 100 μg/mL; +++ represents the MIC value (μM) < 50 μg/mL)
[14]
  MIC values of in vitro antibacterial test results: − (key: − represents the MIC value (μM) > 150 μg/mL; + represents the MIC value (μM) < 150 μg/mL; ++ represents the MIC value (μM) < 100 μg/mL; +++ represents the MIC value (μM) < 50 μg/mL)
[15]
  MIC values of in vitro antibacterial test results: + (key: − represents the MIC value (μM) > 150 μg/mL; + represents the MIC value (μM) < 150 μg/mL; ++ represents the MIC value (μM) < 100 μg/mL; +++ represents the MIC value (μM) < 50 μg/mL)
[16]; 37° C., 24 hours
  MIC values of in vitro antibacterial test results: ++ (key: − represents the MIC value (μM) > 150 μg/mL; + represents the MIC value (μM) < 150 μg/mL; ++ represents the MIC value (μM) < 100 μg/mL; +++ represents the MIC value (μM) < 50 μg/mL)
[17]
  MIC values of in vitro antibacterial test results: + (key: − represents the MIC value (μM) > 150 μg/mL; + represents the MIC value (μM) < 150 μg/mL; ++ represents the MIC value (μM) < 100 μg/mL; +++ represents the MIC value (μM) < 50 μg/mL)
